US6541455B2, “Methods and kits for removing, treating, or preventing lice with driable pediculostatic agents” (priority 1999, dated 2003)

What was measured:
head lice [1] = experiment: In vitro immersion reflex test: louse placed in a drop of wet agent on a microscope slide; set-up: species or system Pediculus humanus capitis; conditions: water by itself
Source text: Driable pediculostatic agents useful in the methods and kits of the present invention are characterized by their ability to induce an immersion reflex in lice in their wet form and to keep the lice in the immersion reflex once dried. The following in vitro test can be conveniently used to determine whether any individual agent is a pediculostatic agent, and can further be used for routine screening of agents—such as those from natural products libraries and combinatorial chemical libraries—to identify those that can be used in the methods, compositions, and kits of the present invention:
1. Contact a louse with an agent suspected of being a pediculostatic agent; and
2. Observe whether the louse becomes immobile.
Observations can readily be performed using a standard inexpensive light microscope with 10× or 40× magnification. The length of time necessary to render the louse completely immobile, in minutes, is the Immersion Reflex Index of the agent tested.
Ten crawling lice were obtained from patients with head lice and each one placed on a separate microscope slide for observation under a microscope at 10× or 40× power. […] Within 6 seconds of application, they stopped all spontaneous movement. Usually within 30 seconds, and always within 60 seconds, they would not respond to contact by a probe and ceased previously visible gastrointestinal motility. […]

head lice [2] = experiment: In vitro test of agent dried onto lice (driable pediculostatic agent test); set-up: species or system Pediculus humanus capitis; conditions: water by itself
Source text: Contact a louse with a pediculostatic agent for a period of time sufficient to immobilize the louse (i.e., for at least 1× the Immersion Reflex Index of the agent);
Dry the agent onto the louse, either by air-drying or by application of heat, and observe whether the louse remains immobilized.
The period of time necessary for a particular dried agent to kill the louse can be conveniently determined by rinsing the dried agent off lice as a function of time and observing whether the rinsed lice regain mobility upon drying off.
Six crawling lice were obtained from patients with head lice and each placed in a drop of […] ® Cleanser as described in EXAMPLE 1. After 2 min., the cleanser was dried onto the lice by air drying (4 lice) or gentle warm air from a hair dryer (2 lice).

Structure (SMILES): O [water]
- induction of the immersion reflex in lice (head lice [1]): triggers the immersion reflex
- lice upon drying of the agent (head lice [2]): recover and regain mobility
